How the values were obtained:
nitrification [1] = test: Example 5: soil incubation in bottles with ammonium sulfate, DMPSA, DCD or mixtures, 5 to 15° C., 0 up to 56 days; recovery NH4 (RE/RC), net recovery NH4 (NE/NC), inhibition of NO3 formation (IE/IC, Böhland; Colby); parameters: unit not given here
Protocol: 100 g soil is filled into 500 ml plastic bottles (e.g. soil sampled from the field) and is moistened to 50% water holding capacity. The soil is incubated at 20° C. for two weeks to activate the microbial biomass. 1 ml test solution, containing the compositions and mixtures of the invention in the appropriate concentration, or DMSO and 5 to 10 mg nitrogen in the form of ammoniumsulfate-N is added to the soil and everything mixed well. Bottles are capped but loosely to allow air exchange. The bottles are then incubated at 5 to 15° C. for 0 up to 56 days.
For analysis, 300 ml of a 1% K2SO4-solution is added to the bottle containing the soil and shaken for 2 hrs in a horizontal shaker at 150 rpm. Then the whole solution is filtered through a Macherey-Nagel Filter MN 807′/. Ammonium and nitrate content is then analyzed in the filtrate in an autoanalyzer at 550 nm (Merck, AA11).
The Böhland equation is described in Böhland, H., et al. (1973) “Mittel zur Hemmung bzw. Regelung der Nitrifikation von Ammoniumstickstoff in Kulturböden”. DDR-Wirtschaftspatent (Economic patent of the German Democratic Republic) C 05c 169 727. Cited by: Peschke, H. (1985) “Zur Bewertung der inhibierenden Wirkung von Nitrifiziden im Boden”, Zbl. Mikrobiol. 140, pp. 583-588.

nitrification [2] = test: Example 4: soil column trial (soil Limburgerhof), DMPSA and DMPP, other weight ratios; incubation 10 d at 15° C.; % inhibition of NO3-N formation (Böhland), Colby; conditions: 10 days of incubation at 15° C.; 0.005% DMPP, 0.45% DMPSA
Text: The effect on NH4+ retention and NH4+ to NO3− ratios in the soil after fertilization of ammonium sulfate with the addition of DMPP, DMPSA or a combination of DMPP and DMPSA was investigated in column trials simulating climatic conditions of spring time in central Europe. Soil Limburgerhof (pH(CaCl2) 6.8, texture: 73% sand; 24% silt, 3% clay) was filled dry into a glass column with an inner width of 4 cm. At the bottom 0.4 g cotton wool was placed above which a frit (Co. Robu, pore size 1) was placed above which 100 g of 2 mm sieved soil Limburgerhof was layered. The soil height in the column was about 7 cm. Before fertilization the soil was brought to about 60% of its water holding capacity (WHC) be adding 14.4 mL of deionized water. Per column 10 mg NH4—N as ammonium sulfate was fertilized or not (control) together or not with 0.005% or 0.015% DMPP (DMPP obtained from BASF SE), 0.45% DMPSA (DMPSA used as free acid obtained from BASF SE) and […] or 0.015% DMPP plus 0.45% DMPSA (% of nitrification inhibitor w/w of NH4-N). Every treatment was replicated three times. After fertilization, 50 mL demineralized water was carefully and slowly placed on top of each column which equals about 31 mm precipitation. After 24 h the eluate was collected and by sucking off the soil to bring it back to about 60% of its WHC. All handlings including soil preparation, fertilization and the temperature of the water for both wetting the soil and the artificial precipitation up to the collection of the eluate 24 h after fertilization was performed at 5° C.
Thereafter, the columns were incubated for 10 d or 20 d at constantly 15° C. in an incubator. After 7 d and 14 d water was added by weight where needed to bring the soils uniformly to 60% WHC. After 10 d or 20 d the soil was removed from the columns and extracted with 1% (w/w) K2SO4 solution by shaking for 2 h at room temperature. The filtrated extract was then analyzed for NH4+ and NO3− colorimetrical by an autoanalyzer.
To calculate the inhibition of nitrate formation by the nitrification inhibitors during the incubation, the above-mentioned Böhland equation was used. To examine synergistic effects of the combination of DMPP+DMPSA the formula by Colby (Colby, S.R., “Calculating synergistic and antagonistic responses of herbicide Combinations”, Weeds, 15, pp. 20-22, 1967) was used. To determine background levels of NH4+ to NO3−, every treatment was also extracted immediately after fertilization and after leaching prior to the further incubation at 15° C. for 10 d or 20 d.

## 2-(3,4-dimethyl-1H-pyrazol-1-yl)succinic acid and/or 2-(4,5-dimethyl-1H-pyrazol-1-yl)succinic acid [DMPSA]
Nitrification [1]; IT10° C., DAT42, % a.i. DMPSA 0.25, DCD 1
  IE (inhibition of NO3 formation, Böhland): 66
Nitrification [1]; IT10° C., DAT42, % a.i. DMPSA 0.25, DCD 3
  IE (inhibition of NO3 formation, Böhland): 66
Nitrification [1]; IT10° C., DAT42, % a.i. DMPSA 0.30, DCD 0.05
  IE (inhibition of NO3 formation, Böhland): 46
Nitrification [1]; IT10° C., DAT42, % a.i. DMPSA 0.50, DCD 0.08
  IE (inhibition of NO3 formation, Böhland): 52
Nitrification [1]; IT10° C., DAT56, % a.i. DMPSA 0.25, DCD 1
  IE (inhibition of NO3 formation, Böhland): 65
Nitrification [1]; IT10° C., DAT56, % a.i. DMPSA 0.25, DCD 3
  IE (inhibition of NO3 formation, Böhland): 65
Nitrification [1]; IT10° C., DAT56, % a.i. DMPSA 0.30, DCD 0.05
  IE (inhibition of NO3 formation, Böhland): 47
Nitrification [1]; IT10° C., DAT56, % a.i. DMPSA 0.50, DCD 0.08
  IE (inhibition of NO3 formation, Böhland): 47
Nitrification [1]; IT15° C., DAT10, % a.i.: DMPSA 0.5, DCD 1, DMPSA + DCD 0.5 + 1 (1:2)
  IE inhibition of NO3 formation: 50
Nitrification [1]; IT15° C., DAT10, % a.i.: DMPSA 0.5, DCD 3, DMPSA + DCD 0.5 + 3 (1:6)
  IE inhibition of NO3 formation: 50
Nitrification [1]; IT15° C., DAT20, % a.i.: DMPSA 0.5, DCD 1, DMPSA + DCD 0.5 + 1 (1:2)
  IE inhibition of NO3 formation: 74
Nitrification [1]; IT15° C., DAT20, % a.i.: DMPSA 0.5, DCD 3, DMPSA + DCD 0.5 + 3 (1:6)
  IE inhibition of NO3 formation: 74
Nitrification [1]; IT15° C., DAT28, % a.i. DMPSA 0.25, DCD 1
  IE (inhibition of NO3 formation, Böhland): 70
Nitrification [1]; IT15° C., DAT28, % a.i. DMPSA 0.25, DCD 3
  IE (inhibition of NO3 formation, Böhland): 70
Nitrification [1]; IT15° C., DAT28, % a.i.: DMPSA 0.30, DCD 0.05, DMPSA + DCD 0.30 + 0.05 (6:1)
  IE inhibition of NO3 formation: 39
Nitrification [1]; IT15° C., DAT28, % a.i.: DMPSA 0.50, DCD 0.0125, DMPSA + DCD 0.50 + 0.0125 (40:1)
  IE inhibition of NO3 formation: 44
Nitrification [1]; IT15° C., DAT28, % a.i.: DMPSA 0.50, DCD 0.0143, DMPSA + DCD 0.50 + 0.0143 (35:1)
  IE inhibition of NO3 formation: 44
Nitrification [1]; IT15° C., DAT28, % a.i.: DMPSA 0.50, DCD 0.0167, DMPSA + DCD 0.50 + 0.0167 (30:1)
  IE inhibition of NO3 formation: 44
Nitrification [1]; IT15° C., DAT28, % a.i.: DMPSA 0.50, DCD 0.08, DMPSA + DCD 0.50 + 0.08 (6.25:1)
  IE inhibition of NO3 formation: 40
Nitrification [1]; IT15° C., DAT30, % a.i.: DMPSA 0.5, DCD 1, DMPSA + DCD 0.5 + 1 (1:2)
  IE inhibition of NO3 formation: 74
Nitrification [1]; IT15° C., DAT30, % a.i.: DMPSA 0.5, DCD 3, DMPSA + DCD 0.5 + 3 (1:6)
  IE inhibition of NO3 formation: 74
Nitrification [1]; IT15° C., DAT42, % a.i. DMPSA 0.25, DCD 1
  IE (inhibition of NO3 formation, Böhland): 55
Nitrification [1]; IT15° C., DAT42, % a.i. DMPSA 0.25, DCD 3
  IE (inhibition of NO3 formation, Böhland): 55
Nitrification [1]; IT15° C., DAT42, % a.i.: DMPSA 0.30, DCD 0.05, DMPSA + DCD 0.30 + 0.05 (6:1)
  IE inhibition of NO3 formation: 29
Nitrification [1]; IT15° C., DAT42, % a.i.: DMPSA 0.50, DCD 0.08, DMPSA + DCD 0.50 + 0.08 (6.25:1)
  IE inhibition of NO3 formation: 44
Nitrification [1]; IT15° C., DAT56, % a.i. DMPSA 0.25, DCD 1
  IE (inhibition of NO3 formation, Böhland): 35
Nitrification [1]; IT15° C., DAT56, % a.i. DMPSA 0.25, DCD 3
  IE (inhibition of NO3 formation, Böhland): 35
Nitrification [1]; IT15° C., DAT56, % a.i.: DMPSA 0.30, DCD 0.05, DMPSA + DCD 0.30 + 0.05 (6:1)
  IE inhibition of NO3 formation: 27
Nitrification [1]; IT15° C., DAT56, % a.i.: DMPSA 0.50, DCD 0.08, DMPSA + DCD 0.50 + 0.08 (6.25:1)
  IE inhibition of NO3 formation: 27
Nitrification [2]
  During incubation: % inhibition of NO3—N formation by NI acc. to Böhland equation (1973) (MV): 22.9%
  Net NI effect % NH4 from fertilized NH4 (MV): 9.36%
  Ratio NH4—N/NO3—N (MV): 0.20
  Soil mg/100 g NH4—N (MV): 0.96 mg/100 g
  Soil mg/100 g NO3—N (MV): 5.15 mg/100 g

From patent publication US20210371351A1, “MIXTURES COMPRISING AT LEAST TWO DIFFERENT NITRIFICATION INHIBITORS SELECTED FROM 2-(3,4-DIMETHYL-1H-PYRAZOL-1-YL)SUCCINIC ACID (DMPSA), 3,4-DIMETHYL PYRAZOLIUM GLYCOLATE (DMPG) AND OTHER COMPOUNDS” (BASF SE, priority 2017, published 2021)
